Experiments:
[1] = tested on: human hair matrix keratinocytes; assay: Ki-67/Tunel fluorescent staining of hair follicles; type: cell-based; details: high doses of compound A; FIG. 4
Protocol: (§1) A Philpott model test system of microdissected organ-cultured hair follicles is used. Hair follicles and skin punches were divided into 4 groups (3 HFs/well) incubated with the test substance Compound ‘A in different concentrations for 6 days. On day 0, microdissection measurements of hair length are conducted. On day 1, the medium is changed and addition of compound A (with measurement of hair length). On day 3, the medium is changed and compound a is added (with measurement of hair length). On day 6, hair length is measured and embedding occurs.
Ki-67/Tunel staining was also conduct on the hair follicles using fluorescent staining.

[2] = tested on: microdissected organ-cultured hair follicles; assay: Hair shaft elongation in Philpott model of microdissected organ-cultured hair follicles; type: cell-based, human; details: 6 days, lower dose of compound A, FIG. 1
Protocol: as §1

[3] = tested on: K19; assay: K19 cells in treated hair follicles and skin; type: cell-based, human; details: for K19 cells: lower hair follicle, FIG. 6
Protocol: as §1

[4] = tested on: human primary keratinocytes; assay: MTT test on human primary keratinocytes; type: cell-based; details: 0.1-1-2 mM, 24 and 48 h, FIG. 7
Protocol: To assess the possible toxic or cytostatic effect of the substances under study, a spectrophotometric test (MTT) was carried out. The human primary keratinocytes, isolated from skin biopsies, were plated in wells of a 24-well plate in suitable medium with addition of antibiotics, calcium, and specific growth factors. At around 70% confluence, the cells were exposed to the presence of Compound A, at various concentrations (0.1-1-2 mM), for 24 and 48 h in suitable medium with addition of antibiotics, calcium, but no growth factors. This culture condition was done for all the subsequent experiments. At the end of the treatment, the MTT test was done.

[5] = tested on: sebocytes; assay: GC-MS assay of fatty acids and squalene in lipid extract of sebocytes stimulated with LA and TST; type: cell-based, human; details: sebocyte lipid extract, A 1 mM
Protocol: In order to evaluate in greater detail the inhibition by Compound A of sebogenesis induced by LA and TST, assays were performed on the lipid extract of the sebocytes using gas chromatography coupled with mass spectrometry (GC-MS). The sebocytes were treated by the scheme described for the Nile Red assay. At the end of the treatment, the cells were removed and then the lipid extraction was done by using organic solvents. One part of the extract was used to analyze the fatty acid composition, while the other part was used for the determination of the quantity of squalene, a lipid characteristic of sebum. […] (FIG. 14B)

[6] = tested on: IL-6; assay: Inhibition of IL-6 protein induction by LPS in keratinocytes (ELISA); type: cell-based, human; details: LPS 10 μg/ml, 0.01-0.1-0.5 mM, 24 h, supernatant ELISA, FIG. 11
Protocol: Analysis of the inhibition by Compound A of the protein induction of IL-6 by LPS (lipopolysaccharide) was done with the ELISA kit. The keratinocytes were plated in wells of a 24-well plate. At 80% confluence, the cells were treated with LPS (10 μg/ml) in presence of compound A at the three concentrations (0.01-0.1-0.5 mM) for 24 h. At the end of the treatment, the supernatant was decanted, centrifuged so as to remove any cell detritus, and kept at −80° C. until the time of the analysis. The quantity of IL-6 present in the supernatant was normalized by the protein concentration of the sample itself.

[7] = tested on: sebocytes; assay: MTT test on human sebocytes; type: cell-based; details: 0.1-0.5-1-2 mM, 24 and 48 h, FIG. 12
Protocol: To assess the possible toxic or cytostatic effect of the substances under study, a spectrophotometric test (MTT) was carried out. The sebocytes were plated in wells of a 24-well plate in suitable medium with addition of antibiotics, calcium and EGF. At roughly 70% confluence, the cells were exposed to the presence of compound A, in various concentrations (0.1-0.5-1-2 mM), for 24 and 48 h. At the end of the treatment, the MTT test was performed. […] (FIG. 12)

[8] = tested on: human hair follicle pigmentation; assay: Fontana-Masson histomorphometry/melanin staining on hair follicle cryosections; type: cell-based; details: FIG. 2
Protocol: as §1

[9] = tested on: IL-6 mRNA; assay: Inhibition of IL-6 mRNA induction by IFN-γ in keratinocytes (Real time RT-PCR); type: cell-based, human; details: IFN-γ 30 ng/ml, 0.01-0.1-0.5 mM, 6 h, FIG. 9
Protocol: Analysis of the inhibition by compound A of the mRNA induction of the proinflammatory cytokine IL-6 by IFN-γ was done through Real time RT-PCR. The keratinocytes were plated in dishes of 6 cm/Ø.
At 80% confluence, the cells were treated with IFN-γ (30 ng/ml) in presence of compound A at the three concentrations (0.01-0.1-0.5 mM) for 6 h.

[10] = tested on: K15; assay: K15 expression in treated hair follicles and skin; type: cell-based, human; details: FIG. 5
Protocol: as §1

[11] = tested on: TNF-alpha mRNA; assay: Inhibition of TNF-alpha mRNA induction by H2O2 in keratinocytes (Real time RT-PCR); type: cell-based, human; details: H2O2 300 μM, 6 h, FIG. 8
Protocol: Analysis of the inhibition of compound A of the mRNA induction of the proinflammatory cytokine TNF-alpha by H2O2 was carried out by Real time RT-PCR. The keratinocytes were plated in dishes of 6 cm/Ø. At 80% confluence, the cells were treated with H2O2 (300 μM) in presence of Compound A at the three concentrations (0.01-0.1-0.5 mM) for 6 h. At the end of the treatment, the cells were lysed in a lysis buffer and subjected to isolation and subsequent retrotranscription of the RNA. […] (FIG. 8)

[12] = tested on: sebocytes; assay: Nile Red assay of sebogenesis induced by linoleic acid and testosterone in sebocytes; type: cell-based, human; details: for sebogenesis (intracellular lipids, Nile Red) induced by LA and LA+TST: TST (20 nM), 24 h
Protocol: Analysis of the inhibition by (compound A) of sebogenesis induced by treatment with linoleic acid (LA) and with testosterone (TST) was evaluated by spectrofluorimetry, using Nile Red as selective marker of intracellular lipids (Nile Red Assay). The sebocytes were plated in wells of a 24-well plate. Next day, they were deprived of serum (2%) and after 24 h they were stimulated, for another 24 h, with LA (10^-4M), TST (20 nM) in presence or in absence of A (1 mM). At the end of the treatment, the sebocytes were stained with Nile Red. The quantitative analysis was done by spectrofluorimetry, which made it possible to distinguish between neutral lipids and polar lipids based on the different wavelength of excitation and emission. […] (FIG. 13).
Analysis of the inhibition by compound A of sebogenesis induced by treatment with linoleic acid (LA) and with testosterone (TST) was evaluated by spectrofluorimetry, using Nile Red as selective marker of intracellular lipids (Nile Red Assay). The sebocytes were plated in wells of a 24-well plate. Next day, they were deprived of serum (2%) and after 24 h they were stimulated, for another 24 h, with LA (10^-4M), TST (20 nM) in presence or in absence of compound A (1 mM). At the end of the treatment, the sebocytes were stained with Nile Red. The quantitative analysis was done by spectrofluorimetry, which made it possible to distinguish between neutral lipids and polar lipids based on the different wavelength of excitation and emission.

Structure (SMILES): CO[C@H](Cc1ccc(NC(C)=O)cc1)C(=O)O [Compound A, N-acetyl-(R)-(−)-3-(4-aminophenyl)-2-methoxypropionic acid]
- proliferation and apoptosis of hair matrix keratinocytes (Ki67/Tunel immunohistomorphometry) [1]: stimulates both proliferation and apoptosis
- hair shaft elongation [2]: stimulates hair shaft elongating
- K19 cells ([3]; 10× higher concentration): down regulation
- K19 cells ([3]; lower concentration): significant upregulation
- K19 expression ([3]; skin): no measurable expression
- cellular vitality (MTT) [4]: did not show any effect on cellular vitality
- fatty acid assay of lipidogenic stimulus induced by LA and LA+TST ([5]; FIG. 14A): reduced
- squalene analysis of lipidogenic stimulus induced by LA and LA+TST ([5]; FIG. 14B): confirmed
- protein expression of IL-6 induced by LPS [6]: inhibit, in dose-dependent manner
- cell vitality (MTT) [7]: no effects on cell vitality
- human hair follicle pigmentation (melanin staining) [8]: stimulation of human hair follicle pigmentation
- dose dependence of inhibition of IL-6 mRNA expression induced by IFN-γ [9]: does not appear to be dose-dependent
- mRNA expression of IL-6 induced by IFN-γ [9]: inhibit the expression of the inflammatory cytokine
- K15 expression ([10]; lower hair follicle, lower doses of compound A): significant upregulation
- K15 expression ([10]; treated skin): no measurable expression
- expression of the mRNA of TNF-α induced by H2O2 ([11]; higher dose (0.5 mM), effect similar to troglitazone (Tg)): complete inhibition
- expression of the mRNA of TNF-α induced by H2O2 ([11]; two higher doses (0.1 mM; 0.5 mM)): able to inhibit
- sebogenesis (intracellular lipids, Nile Red) induced by LA and LA+TST ([12]; Example 9, LA (10^-4M), A 1 mM, FIG. 13): able to reduce the lipidogenic stimulus
- sebogenesis (intracellular lipids, Nile Red) induced by LA and LA+TST ([12]; Example 11, LA (10^-4M), compound A 1 mM, FIG. 15): able to reduce the lipidogenic stimulus
- influence of the times of treatment on reduction of the lipidogenic stimulus ([12]; Example 11, Nile Red assay, FIG. 15): No differences were observed
